Data reported in patent US20250281519A1, “NUCLEOTIDE AND NUCLEOSIDE THERAPEUTIC COMPOSITIONS, COMBINATIONS AND USES RELATED THERETO” (EMORY UNIVERSITY, priority 2021, published 2025).

What was measured:
[1] = molecular target: human DNA polymerase gamma (Homo sapiens (Human), UniProt P54098); experiment: Human DNA polymerase inhibition assay, pol gamma
[2] = molecular target: human DNA polymerase beta (Homo sapiens (Human), UniProt P06746); experiment: Human DNA polymerase inhibition assay, pol beta; conditions: read-out: Human DNA pol β (IC50 uM)
[3] = molecular target: human DNA polymerase alpha (Homo sapiens (Human), UniProt P09884); experiment: Human DNA polymerase inhibition assay, pol alpha; conditions: read-out: Human DNA pol α (IC50 uM)
HIV = HIV infected PBMC assay; assay type: cell-based; conditions: Human immunodeficiency virus 1, PBMC
Description: Fresh human peripheral blood mononuclear cells (PBMCs) were obtained from a commercial source (Biological Specialty) and were determined to be seronegative for HIV and HBV. Depending on the volume of donor blood received, the leukophoresed blood cells were washed several times with PBS. After washing, the leukophoresed blood was diluted 1:1 with Dulbecco's phosphate buffered saline (PBS) and layered over 15 mL of Ficoll-Hypaque density gradient in a 50 ml conical centrifuge tube. These tubes were centrifuged for 30 min at 600 g. Banded PBMCs were gently aspirated from the resulting interface and washed three times with PBS. After the final wash, cell number was determined by Trypan Blue dye exclusion and cells were re-suspended at 1×10^ 6 cells/mL in RPMI 1640 with 15% Fetal Bovine Serum (FBS), 2 mmol/L L-glutamine, 2 μg/mL PHA-P, 100 U/mL penicillin and 100 μg/mL streptomycin and allowed to incubate for 48-72 hours at 37° C. After incubation, PBMCs were centrifuged and resuspended in tissue culture medium. […]
Following addition of test compound to the wells, 50 μL of a predetermined dilution of HIV virus (prepared from 4× of final desired in-well concentration) was added, and mixed well. […] After 7 days in culture, HIV-1 replication was quantified in the tissue culture supernatant by measurement of reverse transcriptase (RT) activity. […]

MRC-5 Cells = experiment: Cytotoxicity in MRC-5 cells (DNA virus table); assay type: cell-based; conditions: beside VZV
[4] = Cytotoxicity in MRC-5 cells (DNA virus table); assay type: cell-based; conditions: human, MRC-5 cells; beside HCMV
[5] = Cytotoxicity in Huh-7 cells (DNA virus table); assay type: cell-based; conditions: human, Huh-7 cells; beside Adenovirus
Huh-7 Cells = experiment: Cytotoxicity in Huh-7 cells (DNA virus table); assay type: cell-based; conditions: beside HSV-1
HBV = HBV replication in HepG2.2.15 cells (viral DNA by qPCR); assay type: cell-based; conditions: Hepatitis B virus
Description: HepG2.2.15 cells (100 μL) in RPMI1640 medium with 10% fetal bovine serum was added to all wells of a 96-well plate at a density of 1×10^4 cells per well and the plate was incubated at 37° C. in an environment of 5% CO2 for 24 hours. Following incubation, six ten-fold serial dilutions of test compound prepared in RPMI1640 medium with 10% fetal bovine serum were added to individual wells of the plate in triplicate. Six wells in the plate received medium alone as a virus only control. The plate was incubated for 6 days at 37° C. in an environment of 5% CO2. The culture medium was changed on day 3 with medium containing the indicated concentration of each compound. One hundred microliters of supernatant was collected from each well for analysis of viral DNA by qPCR and cytotoxicity was evaluated by XTT staining of the cell culture monolayer on the sixth day.
Ten microliters of cell culture supernatant collected on the sixth day was diluted in qPCR dilution buffer (40 μg/mL sheared salmon sperm DNA) and boiled for 15 minutes. Quantitative real time PCR was performed in […] using an Applied Biosystems 7900HT Sequence Detection System and the supporting SDS 2.4 software. […]

HCMV = experiment: Inhibition of DNA virus replication, HCMV; assay type: cell-based; conditions: Human betaherpesvirus 5
VZV = experiment: Inhibition of DNA virus replication, VZV; assay type: cell-based; conditions: Human alphaherpesvirus 3
[6] = Cytotoxicity in HepG2 cells (XTT); assay type: cell-based; conditions: human, beside HBV
Description: The 50% cytotoxic concentration for the test materials are derived by measuring the reduction of the tetrazolium dye XTT in the treated tissue culture plates. XTT is metabolized by the mitochondrial enzyme NADPH oxidase to a soluble formazan product in metabolically active cells. XTT solution was prepared daily as a stock of 1 mg/mL in PBS. Phenazine methosulfate (PMS) stock solution was prepared at 0.15 mg/mL in PBS and stored in the dark at −20° C. XTT/PMS solution was prepared immediately before use by adding 40 µL of PMS per 1 mL of XTT solution. Fifty microliters of XTT/PMS was added to each well of the plate and the plate incubated for 2-4 hours at 37° C. The 2-4 hour incubation has been empirically determined to be within linear response range for XTT dye reduction with the indicated numbers of cells for each assay. Adhesive plate sealers were used in place of the lids, the sealed plate was inverted several times to mix the soluble formazan product and the plate was read at 450 nm (650 nm reference wavelength) with a Molecular Devices SpectraMax Plus 384 spectrophotometer. Data were collected by Softmax 4.6 software and imported into an Excel spreadsheet for analysis.

Adenovirus = experiment: Inhibition of DNA virus replication, Adenovirus; assay type: cell-based; conditions: unidentified adenovirus
HSV-1 = experiment: Inhibition of DNA virus replication, HSV-1; assay type: cell-based; conditions: Human alphaherpesvirus 1
[7] = Cytotoxicity in PBM cells; assay type: cell-based; conditions: human, PHA-P-stimulated peripheral blood mononuclear cells (PBMCs); beside HIV
CV-B3 = conditions: read-out: EC50 against CV-B3; cited from earlier work
EV68 = experiment: CPE reduction assay, EV68; assay type: cell-based; conditions: EV68, strain US/KY/14-18953, RD cells
COXV B1 = experiment: CPE reduction assay, COXV B1; assay type: cell-based; conditions: Huh-7; COXV B1, strain Conn5, Huh7 cells
[8] = Cytotoxicity in MRC-5 cells (enterovirus assays); assay type: cell-based; conditions: human, line of EV71 H
HRV = experiment: CPE reduction assay, HRV; assay type: cell-based; conditions: HeLa
COXV B4 = experiment: CPE reduction assay, COXV B4; assay type: cell-based; conditions: Huh-7; COXV B4, strain JVB, Huh7 cells
COXV A7 = experiment: CPE reduction assay, COXV A7; assay type: cell-based; conditions: Huh-7; COXV A7, strain WP Parker, Huh7 cells
COXV B3 = experiment: CPE reduction assay, COXV B3; assay type: cell-based
[9] = Cytotoxicity in RD cells (enterovirus assays); assay type: cell-based; conditions: human
[10] = Cytotoxicity in HeLa cells (enterovirus assays); assay type: cell-based; conditions: human, line of HRV 26
HeLa = experiment: Cytotoxicity in HeLa cells (enterovirus assays); assay type: cell-based; conditions: line of HRV 1059
Huh7 = experiment: Cytotoxicity in Huh7 cells (enterovirus assays)
in vitro = conditions: human
COXV A18 = experiment: CPE reduction assay, COXV A18; assay type: cell-based; conditions: Huh-7; COXV A18, strain G13, Huh7 cells
EV70 = experiment: CPE reduction assay, EV70; assay type: cell-based; conditions: Huh-7; EV70, strain J670/71, Huh7 cells
EV71 = experiment: CPE reduction assay, EV71; assay type: cell-based; conditions: Enterovirus A
COXV B2 = experiment: CPE reduction assay, COXV B2; assay type: cell-based; conditions: COXV B2, strain Ohio 1, Huh7 cells

human DNA polymerase alpha, sequence (P09884 whole entry): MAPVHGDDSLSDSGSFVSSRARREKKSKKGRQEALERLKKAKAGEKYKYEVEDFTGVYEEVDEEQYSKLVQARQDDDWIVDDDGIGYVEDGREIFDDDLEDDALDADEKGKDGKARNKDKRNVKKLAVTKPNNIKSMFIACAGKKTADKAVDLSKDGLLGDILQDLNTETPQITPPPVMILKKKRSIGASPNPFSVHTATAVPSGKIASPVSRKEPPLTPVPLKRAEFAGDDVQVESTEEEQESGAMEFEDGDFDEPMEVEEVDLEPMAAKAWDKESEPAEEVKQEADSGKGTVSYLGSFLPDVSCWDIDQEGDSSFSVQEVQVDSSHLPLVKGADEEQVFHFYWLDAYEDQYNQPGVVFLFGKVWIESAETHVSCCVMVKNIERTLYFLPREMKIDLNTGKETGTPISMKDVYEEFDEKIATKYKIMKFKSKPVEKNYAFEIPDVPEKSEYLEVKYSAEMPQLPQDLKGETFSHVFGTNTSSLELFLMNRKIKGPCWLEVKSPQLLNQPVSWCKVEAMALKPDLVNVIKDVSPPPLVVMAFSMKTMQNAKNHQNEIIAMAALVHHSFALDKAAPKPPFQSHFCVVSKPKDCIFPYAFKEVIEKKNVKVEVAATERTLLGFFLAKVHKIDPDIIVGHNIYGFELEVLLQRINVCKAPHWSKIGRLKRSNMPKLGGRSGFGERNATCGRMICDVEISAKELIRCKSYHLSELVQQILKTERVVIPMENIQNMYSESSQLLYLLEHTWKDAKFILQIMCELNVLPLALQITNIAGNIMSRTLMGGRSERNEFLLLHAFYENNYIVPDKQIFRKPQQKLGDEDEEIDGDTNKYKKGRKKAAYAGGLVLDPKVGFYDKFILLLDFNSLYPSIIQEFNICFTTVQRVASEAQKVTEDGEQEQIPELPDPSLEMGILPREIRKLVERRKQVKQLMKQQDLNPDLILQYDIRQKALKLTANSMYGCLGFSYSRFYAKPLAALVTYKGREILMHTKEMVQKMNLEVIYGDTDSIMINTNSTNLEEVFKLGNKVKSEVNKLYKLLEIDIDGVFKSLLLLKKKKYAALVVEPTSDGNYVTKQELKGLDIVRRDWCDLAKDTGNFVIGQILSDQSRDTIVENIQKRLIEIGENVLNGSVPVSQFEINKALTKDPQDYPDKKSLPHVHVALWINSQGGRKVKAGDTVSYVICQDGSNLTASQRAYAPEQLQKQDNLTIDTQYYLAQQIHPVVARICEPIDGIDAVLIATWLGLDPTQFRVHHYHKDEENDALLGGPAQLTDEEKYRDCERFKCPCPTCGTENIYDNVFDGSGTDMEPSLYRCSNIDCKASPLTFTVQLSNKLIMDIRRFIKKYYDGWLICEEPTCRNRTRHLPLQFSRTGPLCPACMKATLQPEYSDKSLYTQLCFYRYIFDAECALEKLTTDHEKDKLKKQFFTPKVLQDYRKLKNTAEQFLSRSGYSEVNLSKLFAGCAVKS
human DNA polymerase gamma, sequence (P54098 whole entry): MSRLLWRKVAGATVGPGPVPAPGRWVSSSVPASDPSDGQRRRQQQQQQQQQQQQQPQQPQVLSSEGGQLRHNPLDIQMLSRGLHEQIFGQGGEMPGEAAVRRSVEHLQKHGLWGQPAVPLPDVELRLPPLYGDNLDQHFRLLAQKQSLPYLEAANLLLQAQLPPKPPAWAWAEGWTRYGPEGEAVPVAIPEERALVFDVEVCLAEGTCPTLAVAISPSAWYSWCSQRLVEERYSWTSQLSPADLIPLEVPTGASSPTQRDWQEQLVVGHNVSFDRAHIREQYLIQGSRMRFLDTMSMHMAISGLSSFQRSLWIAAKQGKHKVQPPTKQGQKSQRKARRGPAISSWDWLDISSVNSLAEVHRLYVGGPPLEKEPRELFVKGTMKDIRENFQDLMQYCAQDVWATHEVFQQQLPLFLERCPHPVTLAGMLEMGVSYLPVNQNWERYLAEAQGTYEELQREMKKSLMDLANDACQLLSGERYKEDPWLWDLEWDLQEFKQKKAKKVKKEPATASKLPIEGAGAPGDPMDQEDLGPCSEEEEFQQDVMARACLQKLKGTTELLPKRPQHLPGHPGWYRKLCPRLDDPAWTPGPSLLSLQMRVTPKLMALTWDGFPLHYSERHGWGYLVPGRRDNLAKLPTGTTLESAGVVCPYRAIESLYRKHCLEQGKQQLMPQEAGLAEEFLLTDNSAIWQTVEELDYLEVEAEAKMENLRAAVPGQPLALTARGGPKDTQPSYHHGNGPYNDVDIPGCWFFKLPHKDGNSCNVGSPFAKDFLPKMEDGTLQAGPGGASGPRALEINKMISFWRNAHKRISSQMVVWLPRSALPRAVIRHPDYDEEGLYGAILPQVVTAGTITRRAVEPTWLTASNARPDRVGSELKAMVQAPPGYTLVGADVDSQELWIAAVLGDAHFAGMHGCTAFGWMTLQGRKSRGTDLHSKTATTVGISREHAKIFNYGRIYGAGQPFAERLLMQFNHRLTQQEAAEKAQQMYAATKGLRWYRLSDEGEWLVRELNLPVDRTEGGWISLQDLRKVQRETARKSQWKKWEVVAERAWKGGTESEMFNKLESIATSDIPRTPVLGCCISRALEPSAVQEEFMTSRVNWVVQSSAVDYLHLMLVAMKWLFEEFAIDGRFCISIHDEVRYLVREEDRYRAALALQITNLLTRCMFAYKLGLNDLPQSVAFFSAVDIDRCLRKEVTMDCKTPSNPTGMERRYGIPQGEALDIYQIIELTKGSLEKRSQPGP

**Q.** With `CC1(O)[C@@H](O)[C@@H](COP(=O)(O)OP(=O)(O)OP(=O)(O)O)O[C@H]1n1ccc(=O)[nH]c1=S` (stereo partly drawn) as the compound, how does the IC50 [1] read?
**A.** > 1 mM

**Q.** What about the IC50 [2] of the same compound?
**A.** 588 µM

**Q.** What about the IC50 [3] of the same compound?
**A.** > 1000 µM

**Q.** What does the source list for `CC(C)OC(=O)[C@H](C)NP(=O)(OC[C@H]1O[C@@H](n2ccc(=O)[nH]c2=S)C(C)(O)[C@H]1O)Oc1ccccc1` (stereo partly drawn)?
**A.** EC50 (HIV): > 100 µM; CC50 (MRC-5 Cells): > 100 µM; CC50 [4]: > 100 µM; CC50 [5]: > 100 µM; CC50 (Huh-7 Cells): > 100 µM; IC50 (HBV): > 100 µM; EC50 (HCMV): > 100 µM; EC50 (VZV): > 100 µM; CC50 [6]: > 100 µM; IC50 (Adenovirus): > 100 µM; EC50 (HSV-1): > 100 µM; CC50 at 7 days [7]: > 100 µM

**Q.** For `CN(C)c1ccc(C(=O)O)cc1` [4-Dimethylamino benzoic acid], which EC50 (CV-B3) is on record?
**A.** 9 µM

**Q.** Which EC50 (EV68) does the source give for `CC(C)(C)C(=O)OCOP(=O)(OCOC(=O)C(C)(C)C)OC[C@H]1O[C@@H](n2ccc(=O)[nH]c2=S)[C@](C)(O)[C@@H]1O` [EIDD-2523] here?
**A.** 380 nM

**Q.** What about the EC50 (COXV B1) of the same compound?
**A.** > 31 µM

**Q.** What about the CC50 [8] of the same compound?
**A.** 32 µM

**Q.** What about the EC50 (HRV; strain 26, HeLa cells) of the same compound?
**A.** 430 nM

**Q.** What about the EC50 (HRV; strain 1059, HeLa cells) of the same compound?
**A.** 720 nM

**Q.** What about the EC50 (COXV B4) of the same compound?
**A.** > 16 µM

**Q.** What about the EC50 (COXV A7) of the same compound?
**A.** 3.37 µM

**Q.** What about the EC50 (COXV B3; Huh-7, COXV B3 (printed COXV 83 in the 3rd table), strain HA 201933, Huh7 cells) of the same compound?
**A.** 9.3 µM

**Q.** And the EC50 (COXV B3; Huh-7, COXV B3, strain Nancy, Huh7 cells)?
**A.** 0.38 µM

**Q.** And the CC50 ([9]; line of EV68 US/KY/14-18953)?
**A.** 91 µM

**Q.** What about the CC50 ([9]; line of EV71 Tainan/4643/98) of the same compound?
**A.** 50 µM

**Q.** And the CC50 [10]?
**A.** > 100 µM

**Q.** And the CC50 (HeLa)?
**A.** > 100 µM

**Q.** And the CC50 (Huh7; line of COXV A7 WP Parker)?
**A.** 30 µM

**Q.** And the CC50 (Huh7; line of COXV A18 G13)?
**A.** 32 µM

**Q.** What about the CC50 (Huh7; line of COXV B1 Conn5) of the same compound?
**A.** 31 µM

**Q.** What about the CC50 (Huh7; line of COXV B2 Ohio 1) of the same compound?
**A.** 34 µM

**Q.** And the CC50 (Huh7; line of COXV B3 HA 201933)?
**A.** 46 µM

**Q.** What about the CC50 (Huh7; line of COXV B3 Nancy) of the same compound?
**A.** 32 µM

**Q.** And the CC50 (Huh7; line of COXV B4 JVB)?
**A.** 16 µM

**Q.** What about the CC50 (in vitro) of the same compound?
**A.** 31 µM

**Q.** And the EC50 (COXV A18)?
**A.** 2690 nM

**Q.** What about the EC50 (EV70) of the same compound?
**A.** 70 nM

**Q.** What about the EC50 (EV71; MRC5, EV71, strain H, MRC-5 cells) of the same compound?
**A.** 1.71 µM

**Q.** What about the EC50 (EV71; EV71, strain Tainan/4643/98, RD cells) of the same compound?
**A.** 5.3 µM

**Q.** What about the EC50 (COXV B2) of the same compound?
**A.** 2650 nM
